The values below come from the NIST ThermoML archive (doi:10.1016/j.fluid.2017.04.006).

Data set [1] is described as follows: xn = mol fraction of the nth substance listed. The following applies: 298.15 K, 97.59 kPa, Liquid, Vibrating tube method.
For data set [2] the following is noted: DSC. Background: Differential scanning calorimetry records heat flow against a reference as temperature is scanned.
Data set [3] is described as follows: Molar enthalpy of transition or fusion. The following applies: DSC.

Numbers after ± are expanded uncertainties.

As to `CS(=O)(=O)[O-].[Na+]` [sodium methanesulfonate] + O, the mass density (as a rule, mass per unit of volume) was determined as 1025 ± 5.6 kg/m3 in data set [1] (x1 = 0.008); 1059.9 ± 5.9 kg/m3 in data set [1] (x1 = 0.0188); 1110.4 ± 6.2 kg/m3 in data set [1] (x1 = 0.0358); 1132.7 ± 6.4 kg/m3 in data set [1] (x1 = 0.0438); 1179.8 ± 6.6 kg/m3 in data set [1] (x1 = 0.0621); 1209.3 ± 6.8 kg/m3 in data set [1] (x1 = 0.0743). The mass density in data set [1] (x1 = 0.0952) is listed as 1255.7 ± 7 kg/m3; in data set [1] (x1 = 0.1087), 1283.5 ± 7.1 kg/m3; in data set [1] (x1 = 0.1247), 1313.8 ± 7.2 kg/m3.

On to `CS(=O)(=O)[O-].[NH4+]` [ammonium methanesulfonate] + O, for which the mass density in data set [1] (x1 = 0.0085) is on record as 1014.9 ± 5.5 kg/m3; in data set [1] (x1 = 0.0178) it was 1033.1 ± 5.6 kg/m3; in data set [1] (x1 = 0.0275), 1050.8 ± 5.7 kg/m3; in data set [1] (x1 = 0.0381), 1068.7 ± 5.8 kg/m3; in data set [1] (x1 = 0.051) it was 1088.7 ± 5.8 kg/m3; in data set [1] (x1 = 0.0648), 1108.4 ± 5.9 kg/m3. Further, the mass density stood at 1146.2 ± 5.9 kg/m3 in data set [1] (x1 = 0.0951), 1166.9 ± 5.9 kg/m3 in data set [1] (x1 = 0.1144) and 1190.3 ± 5.8 kg/m3 in data set [1] (x1 = 0.1387).

On to `CS(=O)(=O)[O-].[NH4+]` [ammonium methanesulfonate], for which the figures for the Triple point temperature in data set [2] (Crystal 1) and in data set [2] (Crystal 2) were 470.05 ± 1.8 K and 463.05 ± 1.2 K, respectively. Moreover, the “Molar enthalpy of transition or fusion” value is 8.5 ± 0.5 kJ/mol in data set [3] (Crystal 1) and 9.7 ± 0.3 kJ/mol in data set [3] (Crystal 2).

For `CS(=O)(=O)[O-].[Na+]` [sodium methanesulfonate], the Triple point temperature in data set [2] (Crystal) was found to be 625.95 ± 0.8 K. Further, the “Molar enthalpy of transition or fusion” value in data set [3] (Crystal) came out at 24 ± 0.54 kJ/mol.
